Results as given in BindingDB's records for doi:10.1021/acs.jmedchem.1c00110 (Korea Institute of Science and Technology, 2021).

Target: 5-hydroxytryptamine receptor 7 (Homo sapiens, UniProt P34969)
Assay: Displacement of [3H] D-lysergic acid diethylamide from 5-HT7R (unknown origin) transfected in HEK293 cells incubated for 1.5 hrs by microbeta scintillation counter analysis

Sequence of 5-hydroxytryptamine receptor 7 (P34969 whole entry): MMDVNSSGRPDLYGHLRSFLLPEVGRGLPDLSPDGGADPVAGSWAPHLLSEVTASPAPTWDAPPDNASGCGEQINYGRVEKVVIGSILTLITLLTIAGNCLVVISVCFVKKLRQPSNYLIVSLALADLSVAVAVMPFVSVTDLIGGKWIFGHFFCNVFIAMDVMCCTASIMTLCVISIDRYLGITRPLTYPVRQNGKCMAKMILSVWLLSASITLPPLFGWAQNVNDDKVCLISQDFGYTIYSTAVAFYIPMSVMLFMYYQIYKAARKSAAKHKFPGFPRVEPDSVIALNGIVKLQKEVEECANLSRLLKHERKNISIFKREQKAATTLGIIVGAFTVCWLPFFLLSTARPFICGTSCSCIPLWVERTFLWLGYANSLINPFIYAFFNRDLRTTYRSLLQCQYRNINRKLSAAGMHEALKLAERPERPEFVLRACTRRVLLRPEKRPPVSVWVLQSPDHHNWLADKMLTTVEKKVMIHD

CNCCc1ccc(Cl)c(-c2ccccc2OC)c1 was tested, and the Ki was 2.8 nM.

CCNCCc1ccc(Cl)c(-c2ccccc2OC)c1 was tested, and the Ki was 1.58 nM.
